# Reference: patent publication US8124598B2 (priority 2006, dated 2012)
# Entries after “also recorded” stand apart in the source; their conditions may differ.
# What was measured:
# [1] = target: T1, [^3H]dexamethasone-activated glucocorticoid receptor (Homo sapiens, UniProt P04150); details: brain cells; cited from earlier work
# T1 construct: glucocorticoid receptor in brain cells; host or cells: brain cells
# T1 sequence (P04150 1-777): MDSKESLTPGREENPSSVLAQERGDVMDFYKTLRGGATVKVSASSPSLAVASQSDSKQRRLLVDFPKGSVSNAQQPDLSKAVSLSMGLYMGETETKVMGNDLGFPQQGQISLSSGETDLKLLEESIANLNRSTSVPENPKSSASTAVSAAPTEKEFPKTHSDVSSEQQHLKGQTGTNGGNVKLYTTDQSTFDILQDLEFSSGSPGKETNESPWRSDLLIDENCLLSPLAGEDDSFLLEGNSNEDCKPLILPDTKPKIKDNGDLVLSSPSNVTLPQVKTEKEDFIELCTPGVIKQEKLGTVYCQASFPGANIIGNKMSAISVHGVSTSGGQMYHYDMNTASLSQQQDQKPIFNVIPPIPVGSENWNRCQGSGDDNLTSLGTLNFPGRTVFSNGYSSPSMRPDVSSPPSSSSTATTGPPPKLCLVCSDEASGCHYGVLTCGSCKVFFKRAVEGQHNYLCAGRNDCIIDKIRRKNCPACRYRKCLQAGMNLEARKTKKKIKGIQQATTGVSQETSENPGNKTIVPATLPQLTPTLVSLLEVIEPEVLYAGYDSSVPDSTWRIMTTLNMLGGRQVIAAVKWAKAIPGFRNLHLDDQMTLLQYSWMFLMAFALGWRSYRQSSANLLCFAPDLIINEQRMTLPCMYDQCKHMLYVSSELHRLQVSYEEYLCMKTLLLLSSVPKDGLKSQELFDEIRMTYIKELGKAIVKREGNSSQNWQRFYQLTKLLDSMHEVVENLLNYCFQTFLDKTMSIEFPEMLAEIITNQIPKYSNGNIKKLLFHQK
# [2] = test system: midlife major and minor depression or dysthymia; details: cited from earlier work
# [3] = test system: treatment-resistant patients; assay: Other treatments of the Example 3 patients (history); details: for response to other treatment: Example 3 patients 2, 3, 5, 6, 7, before 7-keto DHEA
# Description: Patient 2 A married person was anxious all their life, hypertensive, fragile, had 4 years of depression due to stress and received 12 years of psychoanalysis.
# [4] = test system: women with severe chronic PTSD; assay: Other medications of the Example 1 case patients (history); format: in vivo, human
# Method: Case 2. patient two, a person with chronic severe PTSD (DSM-IV) associated with a history of severe childhood physical and sexual abuse, had remained highly symptomatic despite undergoing one and a half years of individual and group CBT and receiving paroxetine up to 30 mg daily, from other practitioners, for more than 4 years. […] They wished to be tapered off paroxetine because they had gained 40 lb, and after becoming obese, they also became hypertensive. Ms. […] Although their paroxetine dosage was tapered to 5 mg every other day, and lamotrigine 100 mg and topiramate 75 mg were administered daily, they remained highly symptomatic.
# Case 4. patient one was in psychiatric treatment for over 25 years, including a long course of psychoanalysis and 2 years of CBT. They had been treated with adequate trials of 2 tricyclic antidepressants, 3 SSRIs, venlafaxine, 2 monoamine oxidase inhibitors, 3 anticonvulsants, many typical and atypical antipsychotics, lithium, bupropion, trazodone, and nefazodone.
# […] symptoms persisted in spite of psychotherapy for more than 15 years and numerous trials on medications.
# [5] = Case 4, lorazepam 1 mg p.r.n., aripiprazole 2.5 mg daily, pemoline 75 mg daily, phentermine 30 mg daily
compound,measurement,setting,value
C[C@]12CC[C@H](O)CC1=C[C@@H](O)[C@@H]1[C@@H]2CC[C@]2(C)C(=O)CC[C@@H]12 [7 alpha-hydroxy DHEA],preventing the nuclear uptake of [^3H]dexamethasone-activated glucocorticoid receptor,[1],efficient
C[C@]12CC[C@H](O)CC1=C[C@H](O)[C@@H]1[C@@H]2CC[C@]2(C)C(=O)CC[C@@H]12 [7 beta-hydroxy DHEA],preventing the nuclear uptake of [^3H]dexamethasone-activated glucocorticoid receptor,[1],efficient
"C[C@]12CC[C@H](O)CC1=CC[C@@H]1[C@@H]2CC[C@]2(C)C(=O)CC[C@@H]12 [DHEA, Dehydroepiandrosterone]",induced mania,[2]; case reports,induced mania has been reported
same,effectiveness in depression,"[2]; one open series and 3 placebo-controlled, double-blind, randomized trials, midlife major and minor depression or dysthymia",supported the effectiveness
CN(C)CCC=C1c2ccccc2COc2ccccc21 [Doxepin],response to other treatment,[3],partially responded
same,tolerability of other treatment,"[3]; human, in vivo",intolerant of the side effects
COC(=O)C(c1ccccc1)C1CCCCN1 (centres unmarked) [Methylphenidate],adverse effect,[4]; Case 4,made their anxiety worse
NC1=NC(=O)C(c2ccccc2)O1 (centres unmarked) [Pemoline],benefit,[4]; [5],enough energy to function
CN1CCN2c3ncccc3Cc3ccccc3C2C1 (centres unmarked) [Remeron],response to other treatment,[3],partially helped
"C[S+](CC[C@H](N)C(=O)O)C[C@H]1O[C@@H](n2cnc3c(N)ncnc32)[C@H](O)[C@@H]1O (some centres unmarked) [SAMe, S-adenosylmethionine]",response to other treatment,[3],partially helped; also recorded: made the Doxepin work better
O=C1CCc2ccc(OCCCCN3CCN(c4cccc(Cl)c4Cl)CC3)cc2N1 [aripiprazole],response to other treatment,[3],partially responded
same,benefit,[4]; [5],"some relief from anxiety, depression, and agitation"
same,weight gain,"[4]; human, in vivo",30 lb
C[C@H](N)Cc1ccccc1 [dextroamphetamine],adverse effect,[4]; Case 4,made their anxiety worse
CNCCC(Oc1ccc(C(F)(F)F)cc1)c1ccccc1 (centres unmarked) [fluoxetine],adverse effect of failed trial,"[4]; human, in vivo",agitated and irritable
Nc1nnc(-c2cccc(Cl)c2Cl)c(N)n1 [lamotrigine],response to other treatment,[3],partially improved
O=C1Nc2ccc(Cl)cc2C(c2ccccc2Cl)=NC1O (centres unmarked) [lorazepam],benefit,[4]; [5],"some relief from anxiety, depression, and agitation"
Fc1ccc([C@@H]2CCNC[C@H]2COc2ccc3c(c2)OCO3)cc1 [paroxetine],benefit,"[4]; Case 2, patient's own judgement",not helping their chronic severe anxiety and irritability
CC(C)(N)Cc1ccccc1 [phentermine],benefit,[4]; [5],enough energy to function
CN[C@H]1CC[C@@H](c2ccc(Cl)c(Cl)c2)c2ccccc21 [sertraline],response to other treatment,[3],partially improved
same,benefit,"[4]; Case 5, sertraline for 6 years",minimal benefit
same,adverse effect of failed trial,"[4]; human, in vivo",agitated and irritable
COc1ccc(C(CN(C)C)C2(O)CCCCC2)cc1 (centres unmarked) [venlafaxine],response to other treatment,[3],partially responded
same,tolerability of other treatment,[3]; Example 3 patients 6 and 7,did not like the side effects
same,benefit,"[4]; Case 5, sertraline for 6 years",slightly helpful
same,adverse effect,"[4]; Case 5, venlafaxine at 300 mg daily",overly activated
